# Measurements: PubChem BioAssay AID651549 (Sanford-Burnham Center for Chemical Genomics, 2012)
# Activity calls are given as the source filed them.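 How the source made its calls: active means compounds blocking the PEG3 reporter with IC50 up to 10 µM at either incubation, yet sparing the GAPDH control reporter; inactive means the rest.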
# Assay: GAPDH and PEG-3 promoter luciferase suppression – cell-based, luminescence, set 2, counter-screen for PEG-3 promoter inhibitor project, dose response (AID 651549)
# Settings: HeLa PEG-Prom-luciferase or GAPDH-reporter, 6/24 h
SMILES,"IC50 (GAPDH, run 1, 6 h)","IC50 (GAPDH, run 1, 24 h)","IC50 (PEG-3, run 1, 6 h)","IC50 (PEG-3, run 1, 24 h)"
Cc1cc(C)c(C)c(S(=O)(=O)N2CCN(C(=O)c3cc(=O)[nH]c4ccccc34)CC2)c1C,inactive,4.79 µM,> 99 µM (inactive),inactive
Cc1ccc(S(=O)(=O)NC(CC(C)C)C(=O)NCC(c2ccco2)N2CCCCC2)cc1 (configuration not stated),inactive,inactive,inactive,inactive
NC(=O)c1cc([N+](=O)[O-])ccc1NCc1ccc(N)cc1,inactive,inactive,inactive,7.33 µM
CC(=O)c1cccc(-c2ccnc3c2CC(C(=O)Nc2cccc(NS(C)(=O)=O)c2)O3)c1 (configuration not stated),inactive,8.62 µM,> 99 µM (inactive),inactive
CN1CCC2(CC1)N=C(c1ccc(F)cc1)C(=S)N2C(=O)c1ccc(C(C)(C)C)cc1,inactive,inactive,inactive,inactive
Cc1ccc2nc(NC(=O)CSCC(=O)OCC(=O)c3ccc(Br)cc3)sc2c1,3.81 µM,1.98 µM,> 99 µM (inactive),1.96 µM
O=C(Nc1cccc(-c2ccc(N3CCCCC3)nn2)c1)C(F)(F)F,3.5 µM,inactive,5.36 µM,8.67 µM
Cc1cc(C(=O)Nc2cccc(C(=O)O)c2)oc1C,7.74 µM,inactive,inactive,inactive
COC(=O)c1ccc2nc(Nc3nc4ccc(F)cc4s3)sc2c1,< 1 µM,0.533 µM,< 1 µM,2.74 µM
Cc1cccc(NC(=O)c2oc3ccc(S(=O)(=O)N4CCOCC4)cc3c2C)c1C,inactive,6.39 µM,> 99 µM (inactive),8.47 µM
Cc1ccc(C)c(S(=O)(=O)N2CCN(c3ncnc4sccc34)CC2)c1,inactive,2.54 µM,inactive,2.18 µM
COc1ccc(C(=O)Nc2ccc(C)cn2)c(OC)c1,1.07 µM,3.41 µM,3.63 µM,4.17 µM
CC(=O)OC1CC2(O)C3CCC4CC(O)CCC4(C)C3CCC2(C)C1C1=CC(=O)OC1 (configuration not stated),0.416 µM,0.458 µM,> 99 µM (inactive),0.499 µM
